This is an account of results in patent US20250179167A1, “IL-6 INHIBITOR AS TREATMENT FOR NEPHROPATHY” (YALE UNIVERSITY, priority 2022, published 2025).

Assay [1] deals with diabetic CD-1 mice. The assay is described as follows: Wnt inhibitor (LGK974) treatment in diabetic CD-1 mice, renal histology, GR and β-catenin. In kind it is in vivo, mouse. The protocol:
FIG. 24A-24J show inhibition of Wnt signaling abolished the fibrogenic phenotype in mice. (FIG. 24A) Immunohistochemical analysis of -catenin expression in the kidneys of control and diabetic CD-1 and C57BL/6 mice. n=8 biologically independent mice/group combined from two independent experiments were evaluated. Scale bar 50 μm. Representative images are shown; original magnification 200×. (FIG. 24B) Relative mRNA expression determined by qRT-PCR of Axin2, Tcf and fibronectin, in kidneys of control and diabetic CD-1 and C57BL/6 mice. n=6 biologically independent mice/group combined from two experiments were evaluated. Expression was normalized to the internal control 18S. (FIG. 24C) Schematic diagram representing the treatment protocol of Wnt inhibitor (LGK974; 5 mg/kg body weight) in diabetic CD-1 mice and (FIG. 24D) in UUO mice. (FIG. 24E) Masson trichrome and Sirius red staining in the kidneys of diabetic and Wnt inhibitor-treated diabetic CD-1 mice. Representative images (original magnification 300×) are shown. Relative area of fibrosis (%) and relative collagen deposition (%) were measured using the ImageJ program. n=8 biologically independent mice/group combined from two experiments were evaluated. Scale bar 50 μm. (FIG. 24F) Masson trichrome and Sirius red staining in the kidneys of UUO and Wnt inhibitor-treated UUO mice. Representative images (original magnification 300×) are shown. Relative area of fibrosis (%) and relative collagen deposition (%) were measured using the ImageJ program. n=8 biologically independent mice/group combined from two experiments were evaluated. Scale bar 50 μm. (FIGS. 24G-24H) GR protein levels in CD31-positive cells were analyzed by immunofluorescence in the kidneys of Wnti-treated diabetic mice and Wnti-treated UUO mice. FITC-labeled GR, rhodamine-labeled CD31 and DAPI were used. Merged images and representative pictures are shown; original magnification 300×. n=7 biologically independent mice/group combined from four experiments were evaluated. Scale bar 50 μm. (FIGS. 24I-24J) Immunohistochemical analysis of active -catenin expression in Wnti-treated diabetic mice and Wnti-treated UUO mice. n=7 biologically independent mice/group combined from three experiments were evaluated. Scale bar 30 μm. Data are mean SEM. In all panels, one-way Anova with Tukey multiple comparison post hoc test was used to calculate statistical significance. Significance—*p<0.05, **p<0.01, ***p<0.001.
A single IP dose of 200 mg/kg STZ was used to induce diabetes in CD-1 mice.
In one experiment, male mice were randomized to one of 4 groups sixteen weeks after induction of diabetes: (i) untreated, (ii) fenofibrate (100 mg/kg), (iii) simvastatin (40 mg/kg), or (iv) Wnt inhibitor (LGK974; 5 mg/kg). In each case, mice were treated for 4 weeks and compared to untreated diabetic CD-1 mice. In another experiment, male diabetic CD-1 mice were randomized into one of 3 groups: (i) untreated (vehicle), (ii) etomoxir (20 mg/kg) or (iii) C75 (15 mg/kg); in each case mice were treated (IP) three times/week for a total 4 weeks.
Morphological Evaluation. A point-counting method was utilized to evaluate the relative area of the mesangial matrix. The inventors analyzed PAS-stained glomeruli from each mouse using a digital microscope screen grid containing 540 (27×20) points. Masson's trichrome-stained images were evaluated by ImageJ software, and the fibrotic areas were estimated.
Sirius red staining. Deparaffinized sections were incubated with picrosirius red solution for 1 hour at room temperature. The slides were washed twice with acetic acid solution for 30 seconds per wash. The slides were then dehydrated in absolute alcohol three times, cleared in xylene, and mounted with a synthetic resin. Sirius red staining was analyzed using ImageJ software, and fibrotic areas were quantified.
Immunohistochemistry. […]

Assay [2] concerns db/db mice. The assay is described as follows: Wnt inhibitor (LGK-974) treatment in db/db mice. It counts as in vivo, mouse. As to conditions: 5 mg/kg body weight orally by gavage. How it is done: (FIG. 38A) Postprandial blood glucose measurements in the Wnt inhibitor treatments in db/db mice and untreated control db/db mice. LGK-974 (Wnt inhibitor) was treated at 5 mg/kg body weight dose orally by gavage. (FIG. 38B) GTT analysis in the Wnt inhibitor treatments in db/db mice and untreated control db/db mice. N=6 were analyzed in each group. (FIG. 38C) Area under curve (AUC) in the Wnt inhibitor treatments in db/db mice and untreated control db/db mice. N=6 were analyzed in each group. (FIG. 38D) Physiological parameters such as body weight, epididymal fat, kidney weight, liver weight and heart weight in the Wnt inhibitor treatments in db/db mice and untreated control db/db mice. N=6 were analyzed in each group. (FIG. 38E) MTS and Sirius red staining analysis in the Wnt inhibitor treatments in db/db mice and untreated control db/db mice. Representative pictures of 30× are shown. N=6 were analyzed in each group. Relative area fibrosis (RAF) and relative collagen deposition (RCD) were quantified using Image J software program. (FIG. 38F) MTS and Sirius red staining analysis in the heart sections in the Wnt inhibitor treatments in db/db mice and untreated control db/db mice. Representative pictures of 20× are shown. N=6 were analyzed in each group. […] N=6 were analyzed in each group. […]

Take `Cc1cc(-c2ncc(CC(=O)Nc3ccc(-c4cnccn4)cn3)cc2C)ccn1` [LGK974]: in assay [1] (5 mg/kg), the ECM deposition entry is recorded as “greatly diminished”, the collagen accumulation result is “greatly diminished”, the glomerulosclerosis result is on record as “greatly diminished” and the “relative area of fibrosis” value is on record as “greatly diminished”. For the same compound, in assay [1] (kidney immunohistochemistry), the “level of β-catenin” value is “suppressed the level of β-catenin”. For the same compound, the “endothelial GR” value in assay [1] (kidney, GR in CD31-positive cells) is listed as “substantially restored endothelial GR”. The fibrogenic phenotype entry in assay [2] is on record as “abolishes fibrogenic phenotype”.
